Data on 16 compounds can be found in US20250275924A1, “Anticholinergic Agents and Muscarinic Agonists for the Treatment of Demodex Related Conditions” (ATTILLAPS HOLDINGS INC., priority 2022, published 2025).

Read-outs that look alike come from different tables or passages of the source.

One data set has as its system Demodex mites. Nature of the data set: in vitro assay of Demodex mite paralysis and/or killing (survival time). How it is done:
FIG. 1A-1E is a table summary of an in vitro assay of various agents on Demodex mites survival time and paralysis.
FIG. 1A-1E is a summary of various agents tested in an in vitro assay of Demodex mite paralysis and/or killing. The efficacy of various agents are evaluated in Demodex characterization and/or survival time experiments, including in terms of LT50 (time at which 50% of Demodex mites are killed) and/or associated time (in hours: min or total minutes).

The conditions of data set [1]: oral paroxetine, rosacea; cited from earlier work.
[2] abbreviates: grouping of active agents in the summary, data in FIG. 1A-1E (not reproduced).

Take `CC(CN1c2ccccc2Sc2ccccc21)N(C)C` (centres unmarked) [promethazine]: in the data set with Demodex mites (setting [2]), the “kills Demodex mites” value is reported as “kill Demodex mites”.

Regarding `CN1[C@@H]2CC[C@H]1C[C@@H](OC(c1ccccc1)c1ccccc1)C2` [benztropine], the “kills Demodex mites” value with Demodex mites (setting [2]) was “kill Demodex mites”.

On to `CNCCC=C1c2ccccc2CCc2ccccc21` [nortriptyline], for which, in the data set with Demodex mites (setting [2]), the “paralyzes Demodex mites” value is on record as “paralyzes Demodex mites”.

With `Clc1ccc2c(c1)C(N1CCNCC1)=Nc1ccccc1O2` [amoxapine], the “paralyzes Demodex mites” value with Demodex mites (setting [2]) is reported as “paralyzes Demodex mites”.

Consider `Fc1ccc([C@@H]2CCNC[C@H]2COc2ccc3c(c2)OCO3)cc1` [paroxetine], for which, in the data set with Demodex mites (1% paroxetine), the “onset of Demodex mite paralysis” value is listed as “within the first hour” and the “period of Demodex mite paralysis” value is on record as “at least 12 hours”. Moreover, in the data set on Demodex mites (setting [2]), the “paralyzes Demodex mites” value is reported as “paralyzes Demodex mites”. Moreover, in data set [1], the “patients indicative of improved clinical symptoms” value is given as 42.9% and the tolerability result is “well-tolerated”.

Regarding `CC(C)C(=O)Oc1ccc(CO)cc1[C@H](CCN(C(C)C)C(C)C)c1ccccc1` [fesoterodine], in the data set with Demodex mites (setting [2]), the “paralyzes Demodex mites” value is reported as “paralyzes Demodex mites”.

`CNC1(C)C2CCC(C2)C1(C)C` (centres unmarked) [mecamylamine]: in the data set with Demodex mites (setting [2]), the “kills Demodex mites” value was “kill Demodex mites”.

As to `CN(C)CCC(c1ccc(Cl)cc1)c1ccccn1` (centres unmarked) [chlorpheniramine], in the data set with Demodex mites (setting [2]), the “paralyzes Demodex mites” value is “paralyzes Demodex mites”.

As for `C[N+]12CCC(CC1)C(OC(=O)C(O)(c1ccccc1)c1ccccc1)C2` (centres unmarked) [clidinium], the “paralyzes Demodex mites” value in the data set with Demodex mites (setting [2]) is reported as “paralyzes Demodex mites”.

For the compound `COCCCC/C(=N\OCCN)c1ccc(C(F)(F)F)cc1` [fluvoxamine], the “kills Demodex mites” value with Demodex mites (setting [2]) is on record as “kill Demodex mites”.

For the compound `CC(NC(C)(C)C)C(=O)c1cccc(Cl)c1` (centres unmarked) [bupropion], the “kills Demodex mites” value with Demodex mites (setting [2]) is “kill Demodex mites”.

For `OC(CCN1CCCCC1)(c1ccccc1)C1CCCCC1` (centres unmarked) [trihexyphenidyl], in the data set on Demodex mites (setting [2]), the “paralyzes Demodex mites” value is given as “paralyzes Demodex mites”.

Turning to `COc1ccc2c(c1)[C@]13CCCC[C@@H]1[C@H](C2)N(C)CC3` [dextromethorphan], in the data set on Demodex mites (setting [2]), the “kills Demodex mites” value is on record as “kill Demodex mites”.

Turning to `CN(C)CCCN1c2ccccc2CCc2ccccc21` [imipramine], in the data set on Demodex mites (setting [2]), the “kills Demodex mites” value is “kill Demodex mites”.

As to `OCCOCCN1CCN(C2=Nc3ccccc3Sc3ccccc32)CC1` [quetiapine], the “paralyzes Demodex mites” value in the data set on Demodex mites was “paralyzes Demodex mites”.

Consider `CN(C)CCOC(c1ccccc1)c1ccccc1.Cn1c(=O)c2[nH]c(Cl)nc2n(C)c1=O` [dimenhydrinate], for which the “paralyzes Demodex mites” value in the data set on Demodex mites (setting [2]) is listed as “paralyzes Demodex mites”.
